Reference: PubChem BioAssay AID2060497 (Molecular Pharmacology Branch, DTP, NCI, 2025)
pIC50: −log10 of the molar value.

System: 317291-083-R-J1-PDC complex spheroids, viability
Assay: Anticancer human tumor 317291-083-R-J1-PDC patient-derived soft tissue sarcoma cell line growth inhibition [GQUAD]
Conditions: for pIC50: curve of first compound; for viability, T/C: stronger effect = lower value
Summary of the method: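 Viability of tumor cells grown as complex spheroids with endothelial and stromal cells, exposed to drug combinations. Top concentration at or near clinical Cmax (else 10 microM), diluted in half-log increments.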

[1] = second compound 0.0316 µM, first compound 0.0316 µM
[2] = second compound 0.0316 µM, first compound 0.1 µM
[3] = second compound 0.0316 µM, first compound 0.316 µM
[4] = second compound 0.0316 µM, first compound 1 µM
[5] = second compound 0.0316 µM, first compound 3.16 µM
[6] = second compound 0.0316 µM, first compound 10 µM
[7] = second compound 0.1 µM, first compound 0.0316 µM
[8] = second compound 0.1 µM, first compound 0.1 µM
[9] = second compound 0.1 µM, first compound 0.316 µM
[10] = second compound 0.1 µM, first compound 1 µM
[11] = second compound 0.1 µM, first compound 3.16 µM
[12] = second compound 0.1 µM, first compound 10 µM
[13] = second compound 0.316 µM, first compound 0.0316 µM
[14] = second compound 0.316 µM, first compound 0.1 µM
[15] = second compound 0.316 µM, first compound 0.316 µM
[16] = second compound 0.316 µM, first compound 1 µM
[17] = second compound 0.316 µM, first compound 3.16 µM
[18] = second compound 0.316 µM, first compound 10 µM
[19] = second compound 1 µM, first compound 0.0316 µM
[20] = second compound 1 µM, first compound 0.1 µM
[21] = second compound 1 µM, first compound 0.316 µM
[22] = second compound 1 µM, first compound 1 µM
[23] = second compound 1 µM, first compound 3.16 µM
[24] = second compound 1 µM, first compound 10 µM
[25] = second compound 3.16 µM, first compound 0.0316 µM
[26] = second compound 3.16 µM, first compound 0.1 µM
[27] = second compound 3.16 µM, first compound 0.316 µM
[28] = second compound 3.16 µM, first compound 1 µM
[29] = second compound 3.16 µM, first compound 3.16 µM
[30] = second compound 3.16 µM, first compound 10 µM
[31] = second compound 10 µM, first compound 0.0316 µM
[32] = second compound 10 µM, first compound 0.1 µM
[33] = second compound 10 µM, first compound 0.316 µM
[34] = second compound 10 µM, first compound 1 µM
[35] = second compound 10 µM, first compound 3.16 µM
[36] = second compound 10 µM, first compound 10 µM
[37] = second compound 0.0316 µM, first compound 0.000999 µM
[38] = second compound 0.0316 µM, first compound 0.00316 µM
[39] = second compound 0.0316 µM, first compound 0.00999 µM
[40] = second compound 0.0316 µM, first compound 0.0999 µM
[41] = second compound 0.1 µM, first compound 0.000999 µM
[42] = second compound 0.1 µM, first compound 0.00316 µM
[43] = second compound 0.1 µM, first compound 0.00999 µM
[44] = second compound 0.1 µM, first compound 0.0999 µM
[45] = second compound 0.316 µM, first compound 0.000999 µM
[46] = second compound 0.316 µM, first compound 0.00316 µM
[47] = second compound 0.316 µM, first compound 0.00999 µM
[48] = second compound 0.316 µM, first compound 0.0999 µM
[49] = second compound 1 µM, first compound 0.000999 µM
[50] = second compound 1 µM, first compound 0.00316 µM
[51] = second compound 1 µM, first compound 0.00999 µM
[52] = second compound 1 µM, first compound 0.0999 µM
[53] = second compound 3.16 µM, first compound 0.000999 µM
[54] = second compound 3.16 µM, first compound 0.00316 µM
[55] = second compound 3.16 µM, first compound 0.00999 µM
[56] = second compound 3.16 µM, first compound 0.0999 µM
[57] = second compound 10 µM, first compound 0.000999 µM
[58] = second compound 10 µM, first compound 0.00316 µM
[59] = second compound 10 µM, first compound 0.00999 µM
[60] = second compound 10 µM, first compound 0.0999 µM
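Note: spheroids exposed to compounds for one week before readout.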
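Throughout, for viability, T/C: percent viability relative to DMSO vehicle wells taken as 100%.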

CC1COCCN1c1cc(C2(O)CC3CCC(C2)O3)c2cnn(-c3ccn[nH]3)c2n1 (stereo not drawn) + Cc1cnc(CNC(=O)c2c(=O)c3ccc(N4CCCN(C)CC4)nc3n3c2sc2ccccc23)cn1 showed a pIC50 (second compound 0.0316 µM) of over 7.50, a pIC50 (second compound 0.1 µM) of over 7.50 and a pIC50 (second compound 0.316 µM) of over 7.50. The pIC50 (second compound 1 µM) was over 7.50, the pIC50 (second compound 3.16 µM) was over 7.50 and the pIC50 (second compound 10 µM) was over 7.50. For the same molecule, the viability, T/C [1] was 32.1%, the viability, T/C [2] was 22.9% and the viability, T/C [3] was 11.1%. The viability, T/C [4] was 10.5%, the viability, T/C [5] was 13% and the viability, T/C [6] was 3.33%. For the same molecule, the viability, T/C [7] was 25.9%, the viability, T/C [8] was 22.6% and the viability, T/C [9] was 10.6%. It also gave a viability, T/C [10] of 11.6%, a viability, T/C [11] of 28.6% and a viability, T/C [12] of 2.82%. It also gave a viability, T/C [13] of 18.4%, a viability, T/C [14] of 16.2% and a viability, T/C [15] of 26.7%. For the same molecule, the viability, T/C [16] was 11.9%, the viability, T/C [17] was 11.1% and the viability, T/C [18] was 2.89%. The viability, T/C [19] was 25.6%, the viability, T/C [20] was 18.5% and the viability, T/C [21] was 12.9%. For the same molecule, the viability, T/C [22] was 12.1%, the viability, T/C [23] was 11.7% and the viability, T/C [24] was 5.12%. It also gave a viability, T/C [25] of 14.8%, a viability, T/C [26] of 14.6% and a viability, T/C [27] of 11.1%. The viability, T/C [28] was 12.7%, the viability, T/C [29] was 15.6% and the viability, T/C [30] was 0.73%. For the same molecule, the viability, T/C [31] was 12.7%, the viability, T/C [32] was 9.14% and the viability, T/C [33] was 16.9%. For the same molecule, the viability, T/C [34] was 24.7%, the viability, T/C [35] was 12.1% and the viability, T/C [36] was 2.17%.
CC[C@@]1(O)C(=O)OCc2c1cc1n(c2=O)Cc2cc3c(CN(C)C)c(O)ccc3nc2-1 + Cc1[nH]c2ccc(F)cc2c1-c1nc2c3cccnc3c3ncccc3c2[nH]1 showed a pIC50 (second compound 0.0316 µM) of 7.27, a pIC50 (second compound 0.1 µM) of 7.21 and a pIC50 (second compound 0.316 µM) of 7.25. The pIC50 (second compound 1 µM) was 7.22, the pIC50 (second compound 3.16 µM) was 7.33 and the pIC50 (second compound 10 µM) was 7.61. For the same molecule, the viability, T/C [37] was 97.6%, the viability, T/C [38] was 92% and the viability, T/C [39] was 83%. The viability, T/C [1] was 72.3%, the viability, T/C [40] was 25% and the viability, T/C [3] was 14.7%. For the same molecule, the viability, T/C [41] was 106%, the viability, T/C [42] was 91.9% and the viability, T/C [43] was 91.2%. For the same molecule, the viability, T/C [7] was 87.6%, the viability, T/C [44] was 22.5% and the viability, T/C [9] was 17.7%. For the same molecule, the viability, T/C [45] was 96.9%, the viability, T/C [46] was 97.9% and the viability, T/C [47] was 90.9%. The viability, T/C [13] was 75.7%, the viability, T/C [48] was 24.1% and the viability, T/C [15] was 9.9%. For the same molecule, the viability, T/C [49] was 98.8%, the viability, T/C [50] was 96.6% and the viability, T/C [51] was 108%. It also gave a viability, T/C [19] of 74.4%, a viability, T/C [52] of 30.9% and a viability, T/C [21] of 9.35%. The viability, T/C [53] was 97.6%, the viability, T/C [54] was 100% and the viability, T/C [55] was 80.4%. For the same molecule, the viability, T/C [25] was 64.6%, the viability, T/C [56] was 26.2% and the viability, T/C [27] was 9.6%. The viability, T/C [57] was 63.8%, the viability, T/C [58] was 69.1% and the viability, T/C [59] was 84%. It also gave a viability, T/C [31] of 43.7%, a viability, T/C [60] of 18.7% and a viability, T/C [33] of 8.82%.
In the case of CC1COCCN1c1cc(C2(S(C)(=N)=O)CC2)nc(-c2ccnc3[nH]ccc23)n1 (stereo not drawn) + CN(C)c1ccc(Nc2c3ccc(NC(=O)CCN4CCCC4)cc3nc3cc(NC(=O)CCN4CCCC4)ccc23)cc1, the pIC50 (second compound 0.0316 µM) was 6.02, the pIC50 (second compound 0.1 µM) was 5.94 and the pIC50 (second compound 0.316 µM) was 6.36. The pIC50 (second compound 1 µM) was 7.11, the pIC50 (second compound 3.16 µM) was over 7.50 and the pIC50 (second compound 10 µM) was over 7.50. It also gave a viability, T/C [1] of 123%, a viability, T/C [2] of 111% and a viability, T/C [3] of 81.6%. The viability, T/C [4] was 49.3%, the viability, T/C [5] was 25.8% and the viability, T/C [6] was 15.9%. For the same molecule, the viability, T/C [7] was 141%, the viability, T/C [8] was 105% and the viability, T/C [9] was 82.6%. For the same molecule, the viability, T/C [10] was 54.6%, the viability, T/C [11] was 22.2% and the viability, T/C [12] was 17.1%. It also gave a viability, T/C [13] of 84.9%, a viability, T/C [14] of 79.9% and a viability, T/C [15] of 55.7%. For the same molecule, the viability, T/C [16] was 32%, the viability, T/C [17] was 21.6% and the viability, T/C [18] was 16.8%. For the same molecule, the viability, T/C [19] was 56.6%, the viability, T/C [20] was 44.1% and the viability, T/C [21] was 41.9%. The viability, T/C [22] was 18.3%, the viability, T/C [23] was 15.2% and the viability, T/C [24] was 7.51%. The viability, T/C [25] was 38%, the viability, T/C [26] was 24.3% and the viability, T/C [27] was 37.5%. The viability, T/C [28] was 12.3%, the viability, T/C [29] was 8.02% and the viability, T/C [30] was 7.55%. For the same molecule, the viability, T/C [31] was 3.33%, the viability, T/C [32] was 5.73% and the viability, T/C [33] was 7.2%. The viability, T/C [34] was 6.92%, the viability, T/C [35] was 3.25% and the viability, T/C [36] was 1.68%.
Cn1ncnc1[C@H]1c2n[nH]c(=O)c3cc(F)cc(c23)N[C@@H]1c1ccc(F)cc1 + Cc1[nH]c2ccc(F)cc2c1-c1nc2c3cccnc3c3ncccc3c2[nH]1 was tested, and the pIC50 (second compound 0.0316 µM) was under 6.50, the pIC50 (second compound 0.1 µM) was under 6.50 and the pIC50 (second compound 0.316 µM) was under 6.50. The pIC50 (second compound 1 µM) was under 6.50, the pIC50 (second compound 3.16 µM) was under 6.50 and the pIC50 (second compound 10 µM) was under 6.50. The viability, T/C [37] was 104%, the viability, T/C [38] was 101% and the viability, T/C [39] was 120%. It also gave a viability, T/C [1] of 87.8%, a viability, T/C [40] of 92% and a viability, T/C [3] of 77.2%. For the same molecule, the viability, T/C [41] was 119%, the viability, T/C [42] was 99.2% and the viability, T/C [43] was 113%. The viability, T/C [7] was 112%, the viability, T/C [44] was 91.6% and the viability, T/C [9] was 64.7%. For the same molecule, the viability, T/C [45] was 112%, the viability, T/C [46] was 114% and the viability, T/C [47] was 97.7%. It also gave a viability, T/C [13] of 94.3%, a viability, T/C [48] of 108% and a viability, T/C [15] of 91.1%. The viability, T/C [49] was 120%, the viability, T/C [50] was 113% and the viability, T/C [51] was 89.5%. The viability, T/C [19] was 89.3%, the viability, T/C [52] was 91.1% and the viability, T/C [21] was 72.3%. For the same molecule, the viability, T/C [53] was 106%, the viability, T/C [54] was 99.7% and the viability, T/C [55] was 96.7%. The viability, T/C [25] was 73.4%, the viability, T/C [56] was 75.3% and the viability, T/C [27] was 57.1%. For the same molecule, the viability, T/C [57] was 96.1%, the viability, T/C [58] was 100% and the viability, T/C [59] was 102%. The viability, T/C [31] was 75.4%, the viability, T/C [60] was 86% and the viability, T/C [33] was 68.7%.
